Where “and” joins values, the source holds several entries; their conditions need not be identical. Identical values can stand only once. Entries after “also recorded” stand apart in the source; their conditions may differ.
Columns and labels:
[1] = test system: Mouse TNF superfamily; assay: Thermal denaturation, mouse TNF superfamily; format: binding; conditions: 100 µM compound, 0.1 mg/mL sample; single experiment
Protocol: (§1) A fluorescence probed thermal denaturation assay was performed to assess the effect of the compounds on the thermal stability of TNF (or other members of the TNF family) as a measure of compound binding. The reaction mixture contained 5 µL of 30× SYPRO® Orange dye (Invitrogen) and 5 µL of TNF (at 1 mg/mL), 37.5 μL PBS, pH 7.4 and 2.5 μL of compound (at 2 mM in DMSO). The mixture (10 µL) was dispensed in quadruplicate into a 384 PCR optical well plate and was run on a 7900HT Fast Real-Time PCR System ([…]). The PCR System heating device was set at 20 °C to 99 °C with a ramp rate of 1.1 °C min^−1; fluorescence changes in the wells were monitored by a CCD device. The fluorescence intensity increase was plotted as a function of temperature and the Tm calculated as the midpoint of this denaturation curve (determined as the point of inflection).
Compound based thermal stability increase (oC)
100 µM compound 0.1 mg/mL sample […]
compared to human TNF. Human proteins were provided through a collaboration with Beryllium. Data from a single experiment. […]
compared to mouse TNF. Mouse proteins were purchased from R&D Systems. (Note: No Tm for Lymphotoxin (LTa) was detected in this assay making a change in Tm unmeasurable).
Data from a single experiment.
(also on this page, place not known: 16.0Thermal 10Thermal stability difference (oC) stability increase (oC))

[2] = target: T1, TNF (L57F) (Homo sapiens, UniProt P01375, L133F); assay: HEK reporter gene assay, L57F TNF; format: cell-based; conditions: 10 pM L57F TNF; HEK NFκΒ reporter
T1 construct: Human TNF (CID2043, UniProt P01375 residues 77–233); 6XHis-Smt3 (N, cleaved yes); host or cells: E. coli
T1 sequence (P01375 77-233 L133F): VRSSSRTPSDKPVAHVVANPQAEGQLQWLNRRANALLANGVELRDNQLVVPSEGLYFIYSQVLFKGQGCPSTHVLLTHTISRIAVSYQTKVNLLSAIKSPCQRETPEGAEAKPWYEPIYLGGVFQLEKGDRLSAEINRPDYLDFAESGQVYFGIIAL
Protocol: Stimulation of HEK-293 cells by TNF leads to activation of the NF-κB pathway. The HEK-Blue^TM CD40L SEAP (secreted embryonic alkaline phosphatase) reporter cell line used to determine TNF activity (InvivoGen, #hkb-CD40, cells were described as mycoplasma free when purchased and were tested using Mycoalert [Lonza] after each batch of assay vial preparation). Compounds were titrated in DMSO and pre-incubated with TNF at a concentration giving half maximal response (10 pM for human or 20 pM for mouse) or the anti-human TNFR1 agonist antibody (R&D Systems. #AF 225) for 1 h. Cells were added to the compound/stimulus mixture and further incubated for 18 h. SEAP was measured using the colorimetric substrate HEK-Blue Detect^TM or QUANTI-Blue^TM from InvivoGen. Percentage inhibitions for compound dilutions were calculated between a DMSO control and maximum inhibition (by excess anti-TNF biologic, or NF-κB inhibitor–TPCA-1 [Tocris #2559, R&D Systems]). The IC50 was determined as the point of inflexion between the fitted minimum and maximum of the compound dose response curve, calculated using 4PL fitted curve. Mean IC50s are reported as a mean of at least two experiments. Dose response curves for TNF and the anti-human TNFR1 agonist antibody are shown in Supplementary Fig. 9. […]
In this assay reduction is luminescence is due to cell killing by TNF and inhibition causes increased luminescence. […]

[3] = Mouse free fraction; format: in vitro ADME; conditions: read-out: Mouse free fraction (Fu)
[4] = target: T2, TNF (Homo sapiens, UniProt P01375); assay: Thermal denaturation assay of thermal stability; format: binding; design: stabilise an asymmetrical form of the soluble TNF trimer
T2 sequence (P01375 77-233 limits assumed): as the sequence (P01375 77-233 L133F) above, with F57L counted along it
Protocol: as §1

[5] = target: T2, TNF; assay: TNF reporter gene assay HEK-293, human TNF; format: cell-based; design: stabilise an asymmetrical form of the soluble TNF trimer
Protocol: Stimulation of HEK-293 cells by TNF leads to activation of the NF-κB pathway. The HEK-Blue^TM CD40L SEAP (secreted embryonic alkaline phosphatase) reporter cell line used to determine TNF activity (InvivoGen, #hkb-CD40, cells were described as mycoplasma free when purchased and were tested using Mycoalert [Lonza] after each batch of assay vial preparation). […] Cells were added to the compound/stimulus mixture and further incubated for 18 h. SEAP was measured using the colorimetric substrate HEK-Blue Detect^TM or QUANTI-Blue^TM from InvivoGen. […] The IC50 was determined as the point of inflexion between the fitted minimum and maximum of the compound dose response curve, calculated using 4PL fitted curve. Mean IC50s are reported as a mean of at least two experiments.

[6] = target: T2, TNF; assay: Human TNF induced neutrophil recruitment in vivo; design: stabilise an asymmetrical form of the soluble TNF trimer; conditions: for CD45+ GR-1+ cells/mL in the peritoneal cavity: human TNF, individual mice
Protocol: All in vivo studies were reviewed by an internal Ethical Review Body (ERB) and conducted in accordance with the Animals (Scientific Procedures) Act 1986, EU Directive 2010/63/EU. […] Anti-TNFα biologics, CDP571[21] (10 mg/kg) and etanercept (30 mg/kg), diluted in PBS, were dosed intravenously prior to human and mouse TNF challenge. Two hours after the TNF challenge, mice were sacrificed and the peritoneal cavity lavaged with 3 mL of FACS buffer. An aliquot (0.3 mL) of lavage fluid was used to assess the number CD45^+GR1^+ cells by flow cytometry. Briefly, the cells were treated with ACK lysis buffer, washed and suspended in FACS buffer prior to staining with FITC anti-mouse CD45 and PE anti-mouse GR1. Data are shown as mean ± standard error of the number of CD45^+GR-1^+ cells. Statistical significance (*p < 0.05, **p < 0.01, ****p < 0.0001) was determined using one-way ANOVA with Dunnett’s multiple comparison test.

## Cc1ccc(C)c(Cn2c(C(O)c3ccncc3)nc3ccc(-c4cnn(C)c4)cc32)c1 (centres unmarked) [UCB-9260]
[1]
  change in Tm of other mouse TNF superfamily members: negligible effect
[2]
  inhibition of L57F TNF: did not inhibit; also recorded: no activity
[3]
  fraction unbound: 0.024
[4]; DMSO 5%
  Tm difference (hTNF + compound) - (hTNF+DMSO): 17.3 °C
[4]; hTNF + DMSO (5%) + compound, n=4 replicates
  Tm (mean ± SD): 78.0 ± 0.7 °C
[4]; inhouse hTNF 5% DMSO + compound, 4 wells
  Tm1 Average: 78 °C
[4]; single wells, inhouse hTNF 5% DMSO + compound, listed as 1449260-000, in °C
  Unreviewed - Tm1: 77.1 and 77.9 and 78.1 and 78.7
[5]
  IC50: 202 nM
[5]; 10 pM wild-type TNF, HEK NFκΒ reporter
  inhibition of wild-type TNF: inhibited
[6]; 10mg/kg
  CD45+ GR-1+ cells/mL in the peritoneal cavity: 80382.4 cells/mL and 68398.8 cells/mL and 97517.0 cells/mL and 65083.3 cells/mL and 43379.0 cells/mL and 51529.8 cells/mL
[6]; 30mg/kg
  CD45+ GR-1+ cells/mL in the peritoneal cavity: 12661.4 cells/mL and 54428.1 cells/mL and 25233.7 cells/mL and 91899.5 cells/mL and 50362.8 cells/mL and 37741.7 cells/mL
[6]; 100mg/kg
  CD45+ GR-1+ cells/mL in the peritoneal cavity: 14437.1 cells/mL and 19826.5 cells/mL and 38381.4 cells/mL and 4238.2 cells/mL and 19466.7 cells/mL and 51556.6 cells/mL and 16326.3 cells/mL and 11513.0 cells/mL
[6]; 300mg/kg
  CD45+ GR-1+ cells/mL in the peritoneal cavity: 3894.3 cells/mL and 4438.0 cells/mL and 8909.7 cells/mL and 7748.4 cells/mL and 19700.6 cells/mL and 11113.9 cells/mL
[6]; oral, human TNF i.p., CD45+GR1+ cells
  dose with significant inhibition of neutrophil recruitment: 30 mg/kg

Reference: paper PMC6923382, “Small molecules that inhibit TNF signalling by stabilising an asymmetric form of the trimer” (Nature Communications, 2019)
